Reference: the kinase profiling compilation of Christmann-Franck et al. (2016)

Assays:
Experiment in all cases: radiometric filter-binding kinase assay, Kinase HotSpot
Settings in all cases: compound 0.5 µM; ATP 10 µM
IGF1R (human) = IGF1R (human) (UniProt P08069)
PRKX (human) = PRKX (human) (UniProt P51817)
STK11 (human) = STK11 (human) (UniProt Q15831)
AURKC (human) = AURKC (human) (UniProt Q9UQB9)
BTK (human) = BTK (human) (UniProt Q06187)
CLK1 (human) = CLK1 (human) (UniProt P49759)
CAMK1G (human) = CAMK1G (human) (UniProt Q96NX5)
TSSK2 (human) = TSSK2 (human) (UniProt Q96PF2)
MAP3K7 TAB1 (human) = MAP3K7 TAB1 (human) (UniProt O43318+Q15750)
RIPK2 (human) = RIPK2 (human) (UniProt O43353)
PDPK1 (human) = PDPK1 (human) (UniProt O15530)
PRKCD (human) = PRKCD (human) (UniProt Q05655)
PRKCZ (human) = PRKCZ (human) (UniProt Q05513)
LIMK1 (human) = LIMK1 (human) (UniProt P53667)
EPHB2 (human) = EPHB2 (human) (UniProt P29323)
MINK1 (human) = MINK1 (human) (UniProt Q8N4C8)
PLK3 (human) = PLK3 (human) (UniProt Q9H4B4)
MAP4K5 (human) = MAP4K5 (human) (UniProt Q9Y4K4)
MAP3K2 (human) = MAP3K2 (human) (UniProt Q9Y2U5)
ZAP70 (human) = ZAP70 (human) (UniProt P43403)
MAPK13 (human) = MAPK13 (human) (UniProt O15264)
MAPKAPK5 (human) = MAPKAPK5 (human) (UniProt Q8IW41)
FRK (human) = FRK (human) (UniProt P42685)
RPS6KA6 KD1 KD2 (human) = RPS6KA6 KD1 KD2 (human) (UniProt Q9UK32)
TGFBR1 (human) = TGFBR1 (human) (UniProt P36897)
RET (human) = RET (human) (UniProt P07949)
TAOK2 (human) = TAOK2 (human) (UniProt Q9UL54)
PAK2 (human) = PAK2 (human) (UniProt Q13177)
CDC42BPB (human) = CDC42BPB (human) (UniProt Q9Y5S2)
MAP3K3 (human) = MAP3K3 (human) (UniProt Q99759)
PDGFRB (human) = PDGFRB (human) (UniProt P09619)
DSTYK (human) = DSTYK (human) (UniProt Q6XUX3)
DYRK4 (human) = DYRK4 (human) (UniProt Q9NR20)
MERTK (human) = MERTK (human) (UniProt Q12866)
MST4 (human) = MST4 (human) (UniProt Q9P289)
IKBKB (human) = IKBKB (human) (UniProt O14920)
RPS6KA5 KD2 (human) = RPS6KA5 KD2 (human) (UniProt O75582)
GSK3B (human) = GSK3B (human) (UniProt P49841)
MARK4 (human) = MARK4 (human) (UniProt Q96L34)
TXK (human) = TXK (human) (UniProt P42681)
LCK (human) = LCK (human) (UniProt P06239)
PTK2 (human) = PTK2 (human) (UniProt Q05397)

TGFBR1 (human), sequence (P36897 whole entry, looked up): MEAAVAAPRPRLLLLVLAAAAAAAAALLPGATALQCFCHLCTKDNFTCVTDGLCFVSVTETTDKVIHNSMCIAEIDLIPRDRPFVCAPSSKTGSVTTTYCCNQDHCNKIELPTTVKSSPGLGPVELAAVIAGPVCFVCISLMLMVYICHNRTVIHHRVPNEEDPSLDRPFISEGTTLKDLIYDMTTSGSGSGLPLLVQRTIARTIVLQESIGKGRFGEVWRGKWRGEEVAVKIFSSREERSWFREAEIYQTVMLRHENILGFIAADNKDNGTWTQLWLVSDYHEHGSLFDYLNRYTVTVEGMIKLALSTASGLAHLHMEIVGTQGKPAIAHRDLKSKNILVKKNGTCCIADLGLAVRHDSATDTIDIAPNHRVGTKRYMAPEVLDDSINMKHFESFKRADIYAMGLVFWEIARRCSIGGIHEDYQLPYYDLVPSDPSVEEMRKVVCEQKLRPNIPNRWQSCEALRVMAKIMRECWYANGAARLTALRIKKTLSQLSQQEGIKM
RPS6KA6 KD1 KD2 (human), sequence (Q9UK32 whole entry, looked up): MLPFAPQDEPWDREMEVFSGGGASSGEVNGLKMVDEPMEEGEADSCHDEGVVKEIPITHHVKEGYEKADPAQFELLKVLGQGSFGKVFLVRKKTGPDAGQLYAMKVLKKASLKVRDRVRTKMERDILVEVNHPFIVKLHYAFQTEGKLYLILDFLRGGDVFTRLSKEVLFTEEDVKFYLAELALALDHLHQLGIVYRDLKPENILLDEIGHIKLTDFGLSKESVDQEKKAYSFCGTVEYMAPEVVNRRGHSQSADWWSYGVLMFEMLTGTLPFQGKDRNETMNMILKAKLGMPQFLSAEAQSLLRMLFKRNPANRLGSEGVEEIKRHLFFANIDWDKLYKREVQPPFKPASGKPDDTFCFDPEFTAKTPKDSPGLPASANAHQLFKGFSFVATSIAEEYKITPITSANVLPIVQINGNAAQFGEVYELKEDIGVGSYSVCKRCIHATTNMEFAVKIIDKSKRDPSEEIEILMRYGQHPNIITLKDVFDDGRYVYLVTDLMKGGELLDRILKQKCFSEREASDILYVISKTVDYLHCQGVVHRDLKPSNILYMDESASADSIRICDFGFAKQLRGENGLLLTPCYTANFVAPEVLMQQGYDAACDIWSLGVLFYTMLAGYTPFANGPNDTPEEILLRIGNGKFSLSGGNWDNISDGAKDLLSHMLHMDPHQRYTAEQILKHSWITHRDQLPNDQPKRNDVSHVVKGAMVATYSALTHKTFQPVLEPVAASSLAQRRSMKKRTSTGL
PRKCD (human), sequence (Q05655 whole entry, looked up): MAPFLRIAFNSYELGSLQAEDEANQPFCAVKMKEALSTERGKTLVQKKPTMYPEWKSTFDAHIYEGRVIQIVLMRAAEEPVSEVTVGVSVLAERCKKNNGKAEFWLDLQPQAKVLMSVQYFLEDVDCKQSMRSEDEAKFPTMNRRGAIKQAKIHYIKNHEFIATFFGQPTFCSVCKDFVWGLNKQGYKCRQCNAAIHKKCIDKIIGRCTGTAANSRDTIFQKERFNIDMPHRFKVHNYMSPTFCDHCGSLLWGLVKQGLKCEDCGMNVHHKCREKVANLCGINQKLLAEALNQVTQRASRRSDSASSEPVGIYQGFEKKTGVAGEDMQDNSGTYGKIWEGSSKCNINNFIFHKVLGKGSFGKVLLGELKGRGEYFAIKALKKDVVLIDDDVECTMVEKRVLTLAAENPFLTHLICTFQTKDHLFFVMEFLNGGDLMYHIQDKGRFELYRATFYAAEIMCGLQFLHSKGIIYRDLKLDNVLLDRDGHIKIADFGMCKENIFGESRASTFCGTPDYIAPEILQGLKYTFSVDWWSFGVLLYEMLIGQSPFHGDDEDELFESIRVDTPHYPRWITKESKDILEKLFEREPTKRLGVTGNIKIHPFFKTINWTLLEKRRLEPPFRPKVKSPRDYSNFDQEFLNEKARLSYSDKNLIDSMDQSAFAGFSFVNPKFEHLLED
CAMK1G (human), sequence (Q96NX5 whole entry, looked up): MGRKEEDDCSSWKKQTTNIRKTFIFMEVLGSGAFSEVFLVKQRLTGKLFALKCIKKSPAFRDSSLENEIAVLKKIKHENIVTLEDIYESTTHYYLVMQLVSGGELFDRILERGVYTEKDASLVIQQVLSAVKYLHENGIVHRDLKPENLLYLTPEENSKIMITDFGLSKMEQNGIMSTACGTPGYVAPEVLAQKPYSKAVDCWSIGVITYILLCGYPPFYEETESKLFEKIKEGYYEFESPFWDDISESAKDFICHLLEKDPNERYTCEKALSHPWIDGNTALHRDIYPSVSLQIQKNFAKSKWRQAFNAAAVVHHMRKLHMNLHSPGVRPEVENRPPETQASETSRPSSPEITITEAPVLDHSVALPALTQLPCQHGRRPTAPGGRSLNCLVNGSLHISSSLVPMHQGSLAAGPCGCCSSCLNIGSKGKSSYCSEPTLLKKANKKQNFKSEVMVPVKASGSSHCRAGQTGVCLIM
TSSK2 (human), sequence (Q96PF2 whole entry, looked up): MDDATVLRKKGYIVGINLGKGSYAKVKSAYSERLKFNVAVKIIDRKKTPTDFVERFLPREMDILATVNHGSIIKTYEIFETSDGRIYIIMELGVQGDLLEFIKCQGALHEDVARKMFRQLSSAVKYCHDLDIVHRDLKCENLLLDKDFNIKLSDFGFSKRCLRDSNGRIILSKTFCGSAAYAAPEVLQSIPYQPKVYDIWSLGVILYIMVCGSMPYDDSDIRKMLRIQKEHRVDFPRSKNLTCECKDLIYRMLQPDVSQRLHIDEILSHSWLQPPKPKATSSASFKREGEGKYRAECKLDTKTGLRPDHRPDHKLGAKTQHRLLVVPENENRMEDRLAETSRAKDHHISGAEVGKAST
EPHB2 (human), sequence (P29323 whole entry, looked up): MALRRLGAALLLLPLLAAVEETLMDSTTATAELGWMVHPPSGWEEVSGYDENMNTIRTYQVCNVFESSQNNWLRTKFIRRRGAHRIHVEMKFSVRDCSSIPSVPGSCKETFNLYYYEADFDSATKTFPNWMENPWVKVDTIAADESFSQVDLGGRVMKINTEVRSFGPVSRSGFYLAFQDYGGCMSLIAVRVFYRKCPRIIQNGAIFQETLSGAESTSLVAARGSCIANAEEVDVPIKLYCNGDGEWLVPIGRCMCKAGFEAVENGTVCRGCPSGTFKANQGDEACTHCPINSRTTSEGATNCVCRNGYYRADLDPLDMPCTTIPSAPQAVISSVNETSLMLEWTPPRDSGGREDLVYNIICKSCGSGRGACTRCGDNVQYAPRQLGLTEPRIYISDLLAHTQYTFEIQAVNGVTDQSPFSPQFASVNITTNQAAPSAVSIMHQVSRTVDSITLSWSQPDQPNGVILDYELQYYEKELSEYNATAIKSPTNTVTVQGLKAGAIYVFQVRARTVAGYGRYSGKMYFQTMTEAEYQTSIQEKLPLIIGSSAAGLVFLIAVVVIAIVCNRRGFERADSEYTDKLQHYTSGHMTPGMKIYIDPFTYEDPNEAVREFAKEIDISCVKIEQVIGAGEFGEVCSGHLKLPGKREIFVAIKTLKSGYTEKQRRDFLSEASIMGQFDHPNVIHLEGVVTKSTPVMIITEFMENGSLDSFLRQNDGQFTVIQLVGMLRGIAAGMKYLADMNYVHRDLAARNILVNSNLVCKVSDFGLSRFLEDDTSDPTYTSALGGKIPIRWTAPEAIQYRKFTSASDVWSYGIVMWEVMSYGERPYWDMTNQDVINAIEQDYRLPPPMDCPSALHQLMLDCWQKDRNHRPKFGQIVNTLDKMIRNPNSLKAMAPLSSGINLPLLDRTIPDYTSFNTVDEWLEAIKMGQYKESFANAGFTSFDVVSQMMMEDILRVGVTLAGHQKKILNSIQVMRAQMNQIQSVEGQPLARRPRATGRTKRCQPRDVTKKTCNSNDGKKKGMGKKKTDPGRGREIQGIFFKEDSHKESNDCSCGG
ZAP70 (human), sequence (P43403 whole entry, looked up): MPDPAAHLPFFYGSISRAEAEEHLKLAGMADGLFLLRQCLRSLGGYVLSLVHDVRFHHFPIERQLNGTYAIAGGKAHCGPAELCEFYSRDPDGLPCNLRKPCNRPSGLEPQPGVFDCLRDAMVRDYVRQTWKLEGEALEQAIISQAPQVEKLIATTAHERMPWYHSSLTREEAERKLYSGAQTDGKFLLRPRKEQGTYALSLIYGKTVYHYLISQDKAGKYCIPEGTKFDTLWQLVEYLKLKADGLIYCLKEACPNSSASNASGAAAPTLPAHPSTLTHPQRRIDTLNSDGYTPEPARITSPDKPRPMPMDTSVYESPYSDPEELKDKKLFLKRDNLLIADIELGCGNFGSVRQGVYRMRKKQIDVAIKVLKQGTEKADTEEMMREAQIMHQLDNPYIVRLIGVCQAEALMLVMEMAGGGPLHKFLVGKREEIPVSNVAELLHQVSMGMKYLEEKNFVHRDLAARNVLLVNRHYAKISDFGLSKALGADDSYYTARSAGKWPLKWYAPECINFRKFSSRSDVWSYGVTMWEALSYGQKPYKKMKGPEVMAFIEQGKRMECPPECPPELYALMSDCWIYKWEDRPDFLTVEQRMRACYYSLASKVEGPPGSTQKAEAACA
MAP3K2 (human), sequence (Q9Y2U5 whole entry, looked up): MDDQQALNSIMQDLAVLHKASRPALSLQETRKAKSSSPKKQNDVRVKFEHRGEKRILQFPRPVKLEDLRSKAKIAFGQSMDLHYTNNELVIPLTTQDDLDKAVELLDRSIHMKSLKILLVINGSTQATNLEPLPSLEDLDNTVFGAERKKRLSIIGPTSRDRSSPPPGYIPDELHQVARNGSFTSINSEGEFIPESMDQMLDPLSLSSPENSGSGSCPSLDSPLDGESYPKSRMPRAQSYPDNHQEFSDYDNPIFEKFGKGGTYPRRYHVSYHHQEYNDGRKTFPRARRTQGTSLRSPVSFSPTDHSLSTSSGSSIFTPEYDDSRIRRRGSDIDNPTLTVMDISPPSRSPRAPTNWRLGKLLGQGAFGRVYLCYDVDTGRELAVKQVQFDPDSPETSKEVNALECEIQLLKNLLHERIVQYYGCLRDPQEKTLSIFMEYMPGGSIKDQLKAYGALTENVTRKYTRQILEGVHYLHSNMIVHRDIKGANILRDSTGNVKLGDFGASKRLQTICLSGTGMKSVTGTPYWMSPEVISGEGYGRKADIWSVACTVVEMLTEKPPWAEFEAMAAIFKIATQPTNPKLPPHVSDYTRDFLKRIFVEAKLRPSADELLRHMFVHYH

O=C1c2ccccc2-c2nc3nnnn3nc21
residual activity (IGF1R (human)): 91.1%
residual activity (PRKX (human)): 94.3%
residual activity (STK11 (human)): 99.1%
residual activity (AURKC (human)): 95.4%
residual activity (BTK (human)): 90.6%
residual activity (CLK1 (human)): 79.4%
residual activity (CAMK1G (human)): 28.5%
residual activity (TSSK2 (human)): 75%
residual activity (MAP3K7 TAB1 (human)): 89.9%
residual activity (RIPK2 (human)): 101%
residual activity (PDPK1 (human)): 79%
residual activity (PRKCD (human)): 102%
residual activity (PRKCZ (human)): 99.1%
residual activity (LIMK1 (human)): 65%
residual activity (EPHB2 (human)): 86.1%
residual activity (MINK1 (human)): 91.2%
residual activity (PLK3 (human)): 28.5%
residual activity (MAP4K5 (human)): 78.7%
residual activity (MAP3K2 (human)): 83%
residual activity (ZAP70 (human)): 68.2%
residual activity (MAPK13 (human)): 95.6%
residual activity (MAPKAPK5 (human)): 66.9%
residual activity (FRK (human)): 33.9%
residual activity (RPS6KA6 KD1 KD2 (human)): 62.3%
residual activity (TGFBR1 (human)): 107%
residual activity (RET (human)): 101%
residual activity (TAOK2 (human)): 91.9%
residual activity (PAK2 (human)): 96.2%
residual activity (CDC42BPB (human)): 82.6%
residual activity (MAP3K3 (human)): 134%
residual activity (PDGFRB (human)): 11.3%
residual activity (DSTYK (human)): 81.5%
residual activity (DYRK4 (human)): 88.5%
residual activity (MERTK (human)): 93.1%
residual activity (MST4 (human)): 91.8%
residual activity (IKBKB (human)): 73.4%
residual activity (RPS6KA5 KD2 (human)): 68.7%
residual activity (GSK3B (human)): 83.5%
residual activity (MARK4 (human)): 88.1%
residual activity (TXK (human)): 90.8%
residual activity (LCK (human)): 70.5%

Fc1ccc(-c2nc3n(c2-c2ccncc2)CCS3)cc1
residual activity (IGF1R (human)): 106%
residual activity (PRKX (human)): 97.6%
residual activity (STK11 (human)): 93.8%
residual activity (AURKC (human)): 102%
residual activity (BTK (human)): 103%
residual activity (CLK1 (human)): 103%
residual activity (CAMK1G (human)): 95.2%
residual activity (TSSK2 (human)): 93.2%
residual activity (MAP3K7 TAB1 (human)): 92.2%
residual activity (RIPK2 (human)): 84.7%
residual activity (PDPK1 (human)): 109%
residual activity (PRKCD (human)): 99.1%
residual activity (PRKCZ (human)): 90.6%
residual activity (LIMK1 (human)): 89.3%
residual activity (EPHB2 (human)): 99.3%
residual activity (MINK1 (human)): 97.7%
residual activity (PLK3 (human)): 97.8%
residual activity (MAP4K5 (human)): 98.7%
residual activity (MAP3K2 (human)): 99.8%
residual activity (ZAP70 (human)): 107%
residual activity (MAPK13 (human)): 111%
residual activity (MAPKAPK5 (human)): 97.2%
residual activity (FRK (human)): 104%
residual activity (RPS6KA6 KD1 KD2 (human)): 115%
residual activity (TGFBR1 (human)): 106%
residual activity (RET (human)): 99.5%
residual activity (PTK2 (human)): 102%
residual activity (TAOK2 (human)): 95.7%
residual activity (PAK2 (human)): 84.7%
residual activity (CDC42BPB (human)): 115%
residual activity (MAP3K3 (human)): 100%
residual activity (PDGFRB (human)): 107%
residual activity (DSTYK (human)): 105%
residual activity (DYRK4 (human)): 106%
residual activity (MERTK (human)): 88.7%
residual activity (MST4 (human)): 109%
residual activity (IKBKB (human)): 105%
residual activity (GSK3B (human)): 105%
residual activity (MARK4 (human)): 106%
residual activity (TXK (human)): 98.9%
residual activity (LCK (human)): 96.2%

O=C(c1cc2cc(O)ccc2[nH]1)c1cc2cc(O)ccc2[nH]1
residual activity (IGF1R (human)): 103%
residual activity (PRKX (human)): 94.5%
residual activity (STK11 (human)): 101%
residual activity (AURKC (human)): 83.2%
residual activity (BTK (human)): 86.8%
residual activity (CLK1 (human)): 82.1%
residual activity (CAMK1G (human)): 101%
residual activity (TSSK2 (human)): 93.6%
residual activity (MAP3K7 TAB1 (human)): 79.5%
residual activity (RIPK2 (human)): 37.8%
residual activity (PDPK1 (human)): 97.2%
residual activity (PRKCD (human)): 89.7%
residual activity (LIMK1 (human)): 87.9%
residual activity (EPHB2 (human)): 76.7%
residual activity (MINK1 (human)): 9.87%
residual activity (PLK3 (human)): 101%
residual activity (MAP4K5 (human)): 28.7%
residual activity (MAP3K2 (human)): 102%
residual activity (ZAP70 (human)): 101%
residual activity (MAPK13 (human)): 108%
residual activity (MAPKAPK5 (human)): 89.6%
residual activity (FRK (human)): 86.1%
residual activity (RPS6KA6 KD1 KD2 (human)): 26.7%
residual activity (TGFBR1 (human)): 93.4%
residual activity (RET (human)): 8.98%
residual activity (PTK2 (human)): 109%
residual activity (TAOK2 (human)): 99%
residual activity (PAK2 (human)): 97%
residual activity (CDC42BPB (human)): 96.2%
residual activity (MAP3K3 (human)): 96%
residual activity (PDGFRB (human)): 41.7%
residual activity (DSTYK (human)): 95.5%
residual activity (DYRK4 (human)): 99.7%
residual activity (MERTK (human)): 81.8%
residual activity (MST4 (human)): 101%
residual activity (IKBKB (human)): 91.3%
residual activity (RPS6KA5 KD2 (human)): 96.1%
residual activity (GSK3B (human)): 78.7%
residual activity (MARK4 (human)): 55.3%
residual activity (TXK (human)): 74.9%
residual activity (LCK (human)): 52%
